Measurements as given in US6197575A, “Vascularized perfused microtissue/micro-organ arrays” (Massachusetts Institute of Technology, priority 1999, dated 2001).

Assays:
P450 1A1 = assay: EROD assay (7-ethoxyresorufin O-dealkylation) in perfused bioreactor chip of hepatocytes and endothelial cells; format: cell-based, rat
Description: Bioreactor constructs using an assay that measures the activity of one representative P450 isozyme, cytochrome P450 1A1, was evaluated. This enzyme is present in all mammalian species and is highly inducible by polycyclic aromatic hydrocarbons as well as other agents. 7-Ethoxyresorufin is a selective substrate of rat P450 1A1 which catalyzes its de-ethylation to the highly fluorescent resorufin. Subsequent to P450 1A1 catalyzed de-ethylation, resorufin can be exported from the cell or undergo phase II conjugation. There are two possible phase II conjugation products resulting from the enzyme catalyzed addition of sulfate or glucoronic acid to the 7-hydroxyl group of resorufin. Thus, from this assay one can quantitatively determine the activity of P450 1A1 and the phase II conjugation enzymes. […]
The 7-ethoxyresorufin O-dealkylation (EROD) assay involved dissolving the substrate into the chemically defined media (final concentration of 10-20 μM) and perfusing it through the tissue array. The effluent was collected in sequential fractions which then were analyzed by fluorescence detection for the presence of resorufin. Total conversion within each fraction was determined by incubating an aliquot from the fraction with enzymes that hydrolyze the phase II conjugates of resorufin back to the free alcohol. […]

cells = details: tethered to silicon substrates; cited from earlier work

Which “increase in absolute level of resorufin formation” value (P450 1A1; bioreactor treated for final 24 hours in static culture, attomoles resorufin formed per minute per hepatocyte) does the source give for `Cc1ccc2cc3c(ccc4ccccc43)c3c2c1CC3` [3-methylcholanthrene] here?
The value was “approximately five”.

With `O=c1cc(-c2ccccc2)oc2c1ccc1ccccc12` [naphthoflavone] as the compound, how does the “enzyme activity (resorufin formation) in presence and after removal of inhibitor” value (P450 1A1; 20 μM inhibitor with 10 μM ethoxyresorufin, t=240-385 min) read?
The value was “inhibited by the inclusion of a reversible inhibitor to the media and then recovered when the inhibitor was removed”.

For “Tethered EGF: epidermal growth factor (EGF) tethered to silicon substrates”, which “biological activity after tethering” value (cells) is on record?
The value was “retained full biological activity”.

What about the stimulation of cells (cells) of the same compound?
The stimulation of cells was “stimulate cells in a dose-dependent manner”.
